Source: patent publication US20260217686A1, “N-Myristoyltransferase Inhibitors And Methods Of Use” (Seattle Children's Hospital (d/b/a Seattle Children's …, priority 2022, published 2026)
Where two headings read alike, the source gives them in different places.

Key:
[1] = system: P. falciparum NF54 ring-stage parasites; assay: P. falciparum blood stage assay (SYBR Green parasite DNA); format: cell-based; conditions: Plasmodium falciparum, NF54, 72 h; read-out: blood stage Pf NF54 IC50
Description: To assess whether any of the NMTis developed here could qualify as TCP-1 candidates, the effect of each compound on blood-stage P. falciparum parasites was assessed, as there is currently no well-established in vitro platform for screening P. vivax blood-stage parasites. Synchronized P. falciparum NF54 ring stage parasites were treated for 72 h with each compound at various concentrations, ranging from 0.625 μM to 10 μM, and parasite DNA replication was measured using a fluorescent DNA binding dye (SYBR Green).
Sorbitol-synchronized P. falciparum NF54 ring-stage parasites were cultured at a parasitemia of 0.5% and hematocrit of 1.5% in a 96-well microtiter plate. […] Direct lysis of the blood cells to release the parasite DNA was performed by adding 100 μL of LBS buffer containing SYBR green I DNA binding dye to each well. Plates were incubated at-20° C. overnight for complete lysis and fluorescence was measured at 485 nm (excitation) and 528 nm (emission). ICEstimator regression analysis (antimalarial-icestimator dot net) was used to obtain relative IC50 values for each compound.

[2] = system: P. vivax hypnozoites; assay: P. vivax liver stage assay in primary human hepatocytes, hypnozoites; format: cell-based; conditions: Plasmodium vivax, Hepatocyte; for IC50: 8 dpi, primary human hepatocytes, read-out: liver stage Pv hypnozoites IC50
Description: Finally, the NMT-binding compounds were evaluated against non-developing P. vivax hypnozoites. […] .

[3] = biological target: T1, PvNMT (Plasmodium vivax, UniProt A5K1A2); assay: biochemical; format: biochemical
T1 construct: Gly-Pro stays on the protein after cleavage) (N, cleaved yes); host or cells: E. coli Rosetta 2 (DE3) pRARE
Excerpt: NMT activity was indirectly measured through the detection of free CoA by the thiol-reactive probe 7-diethylamino-3-(4′-maleimidylphenyl)-4-methylcoumarin (CPM).
This study aimed to identify NMT is with high selectivity for the P. vivax enzyme compared with human NMTs and high potency against the different stages of the P. vivax parasite. For this purpose, a structure-guided approach was applied using previously reported NMT inhibitors as scaffolds to develop a new generation of PvNMT-targeting compounds. The NMT activity of these inhibitors was first measured using biochemical assays through the detection of free CoA by the thiol-reactive probe 7-diethylamino-3-(4′-maleimidylphenyl)-4-methylcoumarin (CPM). Their antiparasitic activity were further evaluated by measuring blood-stage parasite load and inhibition of P. vivax liver-stage schizont and hypnozoite infection. […] Cytotoxicity was assessed in the human hepatoma HepG2 cell line. Synchronized P. falciparum NF54 ring-stage parasites were used for measuring blood-stage parasite load. […] In vitro experiments were repeated at least twice. A single concentration of each inhibitor was initially used to evaluate the inhibition of P. vivax liver stage schizont and hypnozoite infection, followed by the determination of the dose-response relationship.
To measure the activity of the purified PvNMT an assay was adapted from the literature. […] Working stock solutions were made fresh adding DMSO for final concentrations of either 1% or 5% DMSO. […] The plate was incubated for 30 min at room temperature. The enzymatic reaction was initiated by adding 50 μL of reaction substrate containing 10 µM myrCoA and PfARF, as well as 8 μM CPM. Fluorescent readings were taken on a Spectra M2 plate reader (Molecular Devices) with excitation at 385 nm and emission at 485 nm. Fluorescent intensity was measured continuously in one-minute intervals for 45 minutes. Background fluorescence and noise were determined by replacing each constituent of the reaction individually with assay buffer containing 1% DMSO and values were deducted from experimental samples. The enzymatic reactions were set up with varying pHs (6.0-8.5) of the assay buffer to determine optimal reaction conditions with minimal background and off target reactions. In lieu of compound, 10 μL of 10% DMSO/H2O was added to each well. Fluorescence signal was obtained continuously for 45 min. […] IC50 calculations were calculated using Prism (GraphPad Software, Inc).

[4] = biological target: T2, HsNMT1 (Homo sapiens, UniProt P30419); assay: NMT activity assay (CPM detection of free CoA), human NMT; format: biochemical; conditions: read-out: HsNMT IC50 (nM)*
T2 construct: made in house
T2 sequence (P30419 1-496): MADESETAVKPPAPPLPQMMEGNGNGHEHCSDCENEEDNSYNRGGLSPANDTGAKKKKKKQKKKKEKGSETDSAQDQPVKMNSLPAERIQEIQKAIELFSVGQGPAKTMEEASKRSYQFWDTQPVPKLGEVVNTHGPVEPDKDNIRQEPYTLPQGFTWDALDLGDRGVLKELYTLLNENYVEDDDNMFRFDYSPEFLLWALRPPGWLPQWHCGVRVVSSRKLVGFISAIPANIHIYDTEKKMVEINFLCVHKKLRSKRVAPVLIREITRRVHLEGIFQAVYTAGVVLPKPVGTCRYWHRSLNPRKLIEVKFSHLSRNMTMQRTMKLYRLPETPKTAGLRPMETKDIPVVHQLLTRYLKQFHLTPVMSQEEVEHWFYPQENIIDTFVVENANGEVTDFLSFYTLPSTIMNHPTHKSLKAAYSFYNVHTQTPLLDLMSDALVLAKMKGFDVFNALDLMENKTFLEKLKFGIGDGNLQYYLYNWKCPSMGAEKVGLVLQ

[5] = system: P. vivax liver stage schizonts; assay: P. vivax liver stage assay in primary human hepatocytes, schizonts; conditions: Plasmodium vivax, Hepatocyte, read-out: liver stage Pv schizonts IC50 (μM)
Description: P. vivax sporozoites were obtained from three independent patient isolates. Liver stage infections were cultured in primary human hepatocytes from a single donor lot using a 384-well microculture system as described previously. Cells were infected and treated with NMTis at 20 μM beginning day 5 post-infection until day 8 when the infection rates were quantified via fluorescent microscopy. […] Accordingly, dose-response curves of all the shortlisted NMTis on parasite isolates 3 and 4 were applied over concentrations up to 20 μM (FIGS. 4C and D).
Plasmodium vivax liver stage assays were performed as described previously. Briefly, 384-well plates were seeded with primary hepatocytes from a single donor lot at a density of 25,000 cells per well. The hepatocytes were then infected with 14,000 freshly hand-dissected sporozoites per well. Cells were exposed to the compounds at indicated concentrations from day 3 post-infection, then proceeded to feed cultures every day, replacing the compounds until day 8 post-infection. Cells were fixed with 4% PFA and stained with PvUIS4 antibodies to detect schizonts and hypnozoites forms by confocal microscopy. The images were processed and analyzed using IMARIS (Bitplane Inc.) image analysis software.

[6] = HepG2 cytotoxicity assay (live/dead staining); format: cell-based, human; conditions: human
Description: (§1) Therefore, the cytotoxicity of the compounds was assessed in the human hepatoma HepG2 cell line. The compounds with PvNMT to HsNMT selectivity index above 20 were shortlisted for further screening.

[7] = system: P. falciparum; conditions: background; read-out: EC50 in a P. falciparum growth assay; cited from earlier work
[8] = system: Plasmodium NMT; conditions: background, cited from earlier work
[9] = system: HepG2 cells; assay: HepG2 cytotoxicity assay (live/dead staining); format: cell-based, human; conditions: positive control, 10-20 μM
Description: as §1

[10] = Table 1, mean values of two or more determinations

T1 sequence (A5K1A2 entry or part of it): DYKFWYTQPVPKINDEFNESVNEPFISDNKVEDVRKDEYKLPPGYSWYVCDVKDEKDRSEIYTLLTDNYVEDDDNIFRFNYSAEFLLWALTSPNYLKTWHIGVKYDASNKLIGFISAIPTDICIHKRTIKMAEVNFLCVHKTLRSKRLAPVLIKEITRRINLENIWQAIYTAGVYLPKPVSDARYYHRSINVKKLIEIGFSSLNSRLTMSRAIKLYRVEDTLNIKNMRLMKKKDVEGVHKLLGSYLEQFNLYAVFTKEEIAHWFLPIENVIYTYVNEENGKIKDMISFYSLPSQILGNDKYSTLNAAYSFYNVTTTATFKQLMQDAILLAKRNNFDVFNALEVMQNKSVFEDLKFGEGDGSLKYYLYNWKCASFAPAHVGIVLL

Structure (SMILES): Cc1n[nH]c(C)c1CCOc1cc(F)ccc1-c1ccnc(N2CCNCC2)c1 [Compound 12q, 1-(4-(2-(2-(3,5-dimetyl-1H-pyrazol-4-yl)ethoxy)-4-fluorophenyl)piridin-2-yl)piperazine]
- IC50 [1]: 380 nM
- IC50 [2]: 4400 nM
- SI** ([3]; Table 1, enzyme selectivity calculated as HsNMT IC50/PvNMT IC50): 22
- IC50 [3, 10]: 73 nM
- IC50 [4, 10]: 1630 nM
- IC50 [5]: 2.2 to 3.5 µM
- IC50 at 48 h [6]: > 20000 nM

Structure (SMILES): Cc1nn(C)c(C)c1CCOc1cccnc1-c1cccc(OCCN(C)C)c1 [Compound 26a, N,N-dimethyl-2-(3-(3-(2-(1,3,5-trimethyl-1H-pyrazol-4-yl)ethoxy)pyridin-2-yl)phenoxy)-ethan-1-amine]
- IC50 ([3]; Table 2): 266 nM
- SI** ([3]; Table 2, HsNMT IC50/PvNMT IC50): 153.8
- IC50 ([4]; Table 2): > 40000 nM

Structure (SMILES): Cc1nn(C)c(C)c1CCOc1ccccc1-c1cccc(OCCN(C)C)c1 [Compound 26b, N,N-dimethyl-2-((2′-(2-(1,3,5-trimethyl-1H-pyrazol-4-yl)ethoxy)-[1,1′-biphenyl]-3-yl)oxy)-ethan-1-amine]
- IC50 ([3]; Table 2): 83.2 nM
- SI** ([3]; Table 2, HsNMT IC50/PvNMT IC50): 118.4
- IC50 ([4]; Table 2): 9850 nM

Structure (SMILES): Cc1nn(C)c(C)c1CCOc1cc(F)ccc1-c1cccc(OCCN(C)C)c1 [Compound 26c, 2-((4′-fluoro-2′-(2-(1,3,5-trimethyl-1H-pyrazol-4-yl)ethoxy)-[1,1′-biphenyl]-3-yl)oxy)-N,N-dimethylethan-1-amine]
- IC50 ([3]; Table 2): 29.4 nM
- SI** ([3]; Table 2, HsNMT IC50/PvNMT IC50): 162.3
- IC50 ([4]; Table 2): 4790 nM

Structure (SMILES): CN(C)CCOc1cccc(-c2ccc(F)cc2OCCc2cccnc2)c1 [Compound 26f, 2-((4′-fluoro-2′-(2-(pyridin-3-yl)ethoxy)-[1,1′-biphenyl]-3-yl)oxy)-N,N-dimethylethan-1-amine]
- IC50 ([3]; Table 2): 622 nM
- SI** ([3]; Table 2, HsNMT IC50/PvNMT IC50): 62.3
- IC50 ([4]; Table 2): > 40000 nM

Structure (SMILES): Cc1n[nH]c(C)c1CCOc1cc(F)ccc1-c1cccc(OCCN(C)C)c1 [Compound 26i, 2-((2′-(2-(3,5-dimethyl-1H-pyrazol-4-yl)ethoxy)-4′-fluoro-[1,1′-biphenyl]-3-yl)oxy)-N,N-dimethylethan-1-amine]
- IC50 ([3]; Table 2): 242 nM
- SI** ([3]; Table 2, HsNMT IC50/PvNMT IC50): 57
- IC50 ([4]; Table 2): 13900 nM

Structure (SMILES): Cc1nn(C)c(C)c1CCOc1ccc2ccccc2c1-c1ccnc(N2CCNCC2)c1 [Compound 30a, 1-(4-(2-(2-(1,3,5-trimethyl-1H-pyrazol-4-yl)ethoxy)naphthalen-1-yl)pyridin-2-yl)piperazine]
- IC50 [1]: 440 nM
- IC50 [2]: 2100 nM
- IC50 ([3]; Table 2): 89 nM
- SI** ([3]; Table 2, HsNMT IC50/PvNMT IC50): 269.8
- selectivity index (SI) ([3]; ratio of IC50 values for HsNMT1 and PvNMT): 269
- IC50 ([4]; Table 2): 24000 nM
- IC50 [5]: 2.9 to 4.3 µM
- IC50 at 48 h [6]: > 20000 nM

Structure (SMILES): c1cncc(CCOc2ccc3ccccc3c2-c2ccnc(N3CCNCC3)c2)c1 [Compound 30c, 1-(4-(2-(2-(pyridin-3-yl)ethoxy)naphthalen-1-yl)pyridin-2-yl)piperazine]
- inhibition at 20 µM ([2]; 20 μM): > 75%
- IC50 ([3]; Table 2): 248 nM
- SI** ([3]; Table 2, HsNMT IC50/PvNMT IC50): 161
- IC50 ([4]; Table 2): > 40000 nM

Structure (SMILES): Cc1nn(C)c(C)c1NS(=O)(=O)c1c(Cl)cc(-c2ccnc(N3CCNCC3)c2)cc1Cl [DDD85646]
- EC50 [7]: 69 nM

Structure (SMILES): Cc1nn(C)c(C)c1CCOc1cc(F)ccc1-c1ccc2c(c1)c(CN(C)C)nn2C [IMP-1002]
- EC50 [7]: 10 nM
- IC50 ([8]; previously developed NMT inhibitors): 3 nM
- selectivity over HsNMT1/2 [8]: up to fourfold

Structure (SMILES): CN[C@@H]1C[C@H]2O[C@@](C)([C@@H]1OC)n1c3ccccc3c3c4c(c5c6ccccc6n2c5c31)C(=O)NC4 [Staurosporine, reference compound]
- effect on HepG2 cell viability [9]: reduced the cell viability
